Our source for the solubility values is US20210388002A1, “DIMETHOXYBENZENE COMPOUND ANALOGS, METHODS FOR ANALYZING SAID COMPOUNDS AND STANDARD PRODUCTS OF SAID COMPOUNDS” (TAIHO PHARMACEUTICAL CO., LTD., priority 2018, published 2021).

The data set in a line: solubility in water and organic solvents. The data set is classed as physicochemical. The settings on record: free form; water, highly water-soluble organic solvents, highly fat-soluble organic solvents.

In the case of `COc1cc(C#Cc2nn([C@H]3CCNC3)c3ncnc(N)c23)cc(OC)c1` [Compound B, (S)-3-((3,5-dimethoxyphenyl)ethynyl)-1-(pyrrolidin-3-yl)-1H-pyrazolo[3,4-d]pyrimidin-4-amine], the solubility entry was “easily soluble”.
